“And” between values parts separate entries of the source, which are not always exact repeats. Identical values can stand only once.
Tests used:
[1] = cited from earlier work
[2] = humans; cited from earlier work
peripheral nerve [3] = settings: cited from earlier work; for extension of standard peripheral nerve block: dexmedetomidine and clonidine, along with corticosteroids; for duration of peripheral nerve block, local anesthetic alone: no adjuvant or steroid; for life of peripheral nerve blocks and tissue infiltrates with adjuvants: with epinephrine, corticosteroids, α2-agonists
[4] = assay type: physicochemical; settings: for drug mass remaining in solution: 0.375 %; for drug mass precipitated: equal volumes of 8.4% NaHCO3 and 0.75% anesthetic solution, in vitro
Excerpt: Because of their elevated pKa's, ALALA drugs will form a crystalline precipitate 82 in an alkaline environment, both intra-axonally and extra-axonally (at the nodes of Ranvier 20 in A-delta fibers and generally around the axon in C-fibers). […] It is anticipated levo-bupivacaine will react similarly to levo-ropivacaine at 96.5% conversion to precipitate and crystallization when this drug becomes available.
NaHCO3 in Solution 1, when mixed with bupivacaine, levo-bupivacaine, or ropivacaine of Solution 2, will cause these drugs to immediately precipitate into crystals in this alkaline solution.
As discovered in our laboratory, 8.4% NaHCO3, when combined in vitro with bupivacaine or ropivacaine, results in precipitates of 93.5% and 96.5% respectively of the parent ALALA drug. […] Controlling the pH of the final combination of all these drugs and bases more efficiently controls the percentage of ALALA converted to precipitate and crystals and thereby the duration of the resulting nerve block.

[5] = cited from earlier work; for pH at which precipitates began to form: combined with NaOH
[6] = Precipitation of local anesthetics with increasing pH (NaOH) or corticosteroids; assay type: physicochemical; settings: alkaline solution
peripheral nerve [7] = assay type: in vivo, human
Excerpt: The mass of ALALA drug precipitated around the peripheral nerve or infiltrated tissue causes the intraneural metabolic mechanism transforming unionized to ionized ALALA drug to get overwhelmed. Thus, the normal transformation to ionized ALALA drug gets delayed to the point it takes 5 days or longer for all the ALALA drug to be metabolized and the block to wear off.

target nerve = test: ALALA-carbonate nerve block by injection of Solution 1 and Solution 2; assay type: in vivo, human; settings: ALALA-carbonate precipitate in and around the nerve
Excerpt: As shown in FIGS. 17-23, the establishment of a 5-day peripheral nerve block involves the injection of two separate and sequential solutions to form the ALALA-compound precipitate and crystals in vivo around the nerves for specific nerve blocks. These solutions form the ALALA-compound precipitates and crystals. As the two solutions must be kept separate until injection over the specific nerve is accomplished, the solutions may then react to form the ALALA-compound precipitate and crystals in vivo. This separation of solutions by two different means: • 1. The sequential injection of two separate solutions through a single needle (FIGS. 17-19 and 22). • 2. The simultaneous injection of both solutions through a bifurcated needle where mixing occurs only at the needle tip(s) opposite the target nerve (FIGS. 20 and 21). These alkaline solutions are: • 1. […] Epinephrine 86 is present at a concentration of ˜3 mcg/ml, primarily as a standard vascular marker producing mild tachycardia if leakage into the vascular system occurs. When Solution 1 is given, a pulse-oximeter or EKG rhythm strip must be run to confirm no tachycardia for 2 minutes to ensure Solution 1 has no leakage into the vascular system with a resulting tachycardia greater than 15% above baseline pulse. […] Solution 2 is injected only if no increase impulse rate greater than 15% above baseline is determined within 2 minutes. • 3. […]

axolemma or node = test system: axolemma or node
Protocol: It is this small amount of bupivacaine within the axolemma/node that results, primarily, in continuing neural blockade for periods of 120 hours or more.

[8] = Test-tube combination of levobupivacaine with NaHCO3 versus molar prediction; assay type: physicochemical
Excerpt: In a test-tube with one mole of ropivacaine or levobupivacaine reacting with one mole of NaHCO3, a much higher percentage of ropivacaine or levobupivacaine is converted to the ALALA-bicarbonate precipitate than with racemic bupivacaine. Testing with levobupivacaine with NaHCO3 it was established that, levobupivacaine combines with NaHCO3 much more readily than molar predictions indicated. Where molar quantities predicted a 57.7% combination, an 83.9% combination occurred. Where another molar quantity predicted an 86.5% combination, a 94.0% combining of levobupivacaine and NaHCO3 occurred. Thus levo-enantiomers of the ALALA drugs are the preferred forms to be used to create these ALALA-bicarbonate precipitates.

| SMILES | drug mass remaining in solution [4] | drug mass precipitated [4] | extension of standard peripheral nerve block (peripheral nerve [3]) | duration of peripheral nerve block, local anesthetic alone (peripheral nerve [3]) | life of peripheral nerve blocks and tissue infiltrates with adjuvants (peripheral nerve [3]) | pH at which precipitates began to form [5] | other results |
| --- | --- | --- | --- | --- | --- | --- | --- |
| CCCCNc1ccc(C(=O)OCCN(C)C)cc1 [tetracaine] | – | – | – | – | – | – | pKa relative to bupivacaine [1]: higher than bupivacaine; dose at which anaphylactic reactions are known [2]: ≤ 10 mg |
| CCCN1CCCC[C@H]1C(=O)Nc1c(C)cccc1C [ropivacaine, (S)-1-propyl-N-(2,6-dimethylphenyl)piperidine-2-carboxamide] | 3.50% | 96.5% | ~50% | ~12 h and 16 h | ~24 h | 6.9 pH | – |
| CCN(CC)CC(=O)Nc1c(C)cccc1C [lidocaine] | – | – | – | – | – | – | pH at which lidocaine precipitates [6]: ~11.5 pH |
| CCCCN1CCCCC1C(=O)Nc1c(C)cccc1C (racemic) [bupivacaine, (RS)-1-butyl-N-(2,6-dimethylphenyl)piperidine-2-carboxamide] | 7.47% | 93.53% and 93.5% and 92.53% | ~50% | ~12 h and 16 h | ~24 h | 7.7 pH | duration of block achieved (peripheral nerve [7]; 225 mg bupivacaine dose, single volunteer): 5 days; depot as percentage of the dose injected (peripheral nerve [7]; human, in vivo): 7.163%; duration of neural blockade / analgesia (target nerve): ≥ 120 h; fraction penetrating the axolemma or node before precipitation (axolemma or node): approximately 11.9% |
| CC1(C)O[C@@H]2C[C@H]3[C@@H]4CCC5=CC(=O)C=C[C@]5(C)[C@@]4(F)[C@@H](O)C[C@]3(C)[C@]2(C(=O)CO)O1 [Triamcinolone] | – | – | – | – | – | – | precipitate effect when combined with the ALALA drugs ([5]; Hwang et al.): no precipitate-effects |
| CCCCN1CCCC[C@H]1C(=O)Nc1c(C)cccc1C [levobupivacaine, (S)-1-butyl-N-(2,6-dimethylphenyl)-2-piperidinecarboxamide] | – | – | – | ~12 h | ~24 h | – | combining of levobupivacaine and NaHCO3 that occurred ([8]; where another molar quantity predicted an 86.5% combination): 94.0%; combination of levobupivacaine and NaHCO3 that occurred ([8]; where molar quantities predicted a 57.7% combination): 83.9% |
